Data: patent publication US11643413B2, “9-(2-oxacycloalkyl)-9H-purine-2,6-diamine derivatives and their use for the treatment of skin disorders” (UNIVERZITA PALACKEHO V OLOMOUCI, priority 2017, dated 2023)

Tests used:
[1] = test system: Salmonella typhimurium strains TA 98, TA 100, TA 1535, TA 1537; test: Ames test (Bacterial Reverse Mutation Test), Salmonella; assay type: cell-based; details: 10-1000 μg per plate; without as well as with metabolic activation
Procedure: (§1) The test substance was (114) assayed for the mutagenicity by the Bacterial Reverse Mutation Test. The performed test was based on EU method B.13/14 Mutagenicity—Reverse mutation test using bacteria, which is analogous to the OECD Test Guideline No. 471. Four indicator Salmonella typhimurium strains TA 98, TA 100, TA 1535, TA 1537 and one indicator Escherichia coli WP2 uvrA strain were used. The test substance was dissolved in dimethylsulfoxide (DMSO) and assayed in doses of 10-1000 μg per plate, which were applied to plates in volume of 0.1 mL. Experiments were performed without as well as with metabolic activation with a supernatant of rat liver and a mixture of cofactors. The working procedure described is in accordance with the documents Method B.13/14, Mutagenicity: Reverse Mutation Test Using Bacteria, Council Regulation (EC) No. 440/2008. Published in O.J. L 142, 2008 and OECD Test Guideline 471, Bacterial Reverse Mutation Test. Adopted Jul. 21, 1997. In the arrangement given above, the test substance was non-mutagenic for all the used tester strains without as well as with metabolic activation.

in vivo = details: both sexes, Wistar, rat, sc
Procedure: The aim of the study was to investigate acute toxic effects of the test substance, after a single subcutaneous administration to Wistar rats. The testing was performed according to the methods: ČSN EN ISO 10993-11: Biologické hodnoceni zdravotnických prostředků—část 11: Zkoušky na systémovou toxicitu and OECD Test Guideline No. 420 Acute Oral Toxicity—Fixed Dose Proceduře. Adopted 17 Dec. 2001. The test substance 114 was administered in a single dose as solution in vehicle (olive oil), given subcutaneously to male and female Wistar rats. The dosing was performed sequentially. The pre-test (the sighting study) was performed with 1 female and 1 male for each dose level. The dose level of 30 mg/kg was used as the starting dose. No death of animal was recorded at the starting dose, therefore the following dose level was used (100 mg/kg). […] The presence of subcutaneously administered test substance at the dose level of 30 and 100 mg/kg was visible to second day after application. […] According to the study results the Maximum Tolerated Dose (subcutaneous) of the test substance for male and female rats is >100 mg/kg.

BJ skin fibroblasts = test: Intracellular ROS production, DCFH-DA probe; assay type: cell-based, human; details: 24 h incubation at 100, 10, 1 and 0.1 μM
Procedure: ROS production in living cells was determined by using the fluorescent probe DCFH-DA. In brief, compound 114 at 100, 10, 1 and 0.1 μM concentrations was incubated for 24 h with BJ skin fibroblasts. Thereafter, cells were washed with phosphate buffer and DCFH-DA was added. The fluorescence was read every 1 min over 20 min by using microplate reader Infinite M200 (TECAN, Switzerland). ROS production was calculated as the increase in fluorescence over 20 min.

[2] = test system: Escherichia coli WP2 uvrA strain; test: Ames test (Bacterial Reverse Mutation Test), E. coli; assay type: cell-based; details: 10-1000 μg per plate; without as well as with metabolic activation
Procedure: as §1

Question: Which mutagenicity [1] does the source give for `CN(C)c1nc(NCc2ccco2)c2ncn(C3CCCCO3)c2n1` (stereo not shown) [Compound 114, 2-(Dimethylamino)-6-furfurylamino-9-(tetrahydro-2H-pyran-2-yl)-9H-purine] here?
Answer: The mutagenicity was “non-mutagenic”.

Question: What about the MTD (in vivo) of the same molecule?
Answer: The MTD was greater than 100 mg/kg.

Question: And the “concentration at which intracellular ROS production is significantly decreased” value (BJ skin fibroblasts)?
Answer: Its value is no less than 10 µM.

Question: What about the mutagenicity [2] of the same molecule?
Answer: Its mutagenicity is “non-mutagenic”.
